From US12091425B2 (AMGEN INC., priority 2016, dated 2024) come the findings set out here.

pIC50: −log10 of the molar value.

For test [1], the system named is OPM-2 human multiple myeloma cell line. As to the kind of experiment: Cell Viability Assay (OPM-2 10 FBS). The format is cell-based. The settings on record: OPM-2 cells, CellTiter-Glo. Put shortly:
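OPM-2 myeloma cells, 3000/well in medium with 10% FBS, exposed to serially diluted compounds for 16 h at 37° C./5% CO2. Viability read by CellTiter-Glo luminescence; IC50 from 4-parameter logistic fit.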
Background: ATP-based viability assays read luminescence as a measure of living cells.

Test [2] deals with T1, Mcl-1/Bim interaction, recombinant human Mcl-1 (171-327) (Homo sapiens, UniProt Q07820).
T1 construct: made in house
The test is described as follows: Cell free Mcl-1: Bim Affinity Assay (Mcl-1 HTRF). Format: binding. Put shortly: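 TR-FRET competition assay with biotinylated human Bim peptide (residues 51-76); reaction plates incubated overnight before reading. IC50 values came from duplicate data fitted to a four-parameter sigmoidal competition curve.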
For orientation: TR-FRET usually uses a lanthanide donor and a delayed reading to cut background.

Where [3] appears, read: Homo sapiens, OPM-2, 16 h, 16 h.
Setting [4] is: TR-FRET, 0.1 nM Mcl-1 (171-327), 0.05 nM biotin-Bim (51-76).
Setting [5] is: Homo sapiens, OPM-2, 16 h, 16 h incubation.
The mark [6] stands for this setting: cell free Mcl-1:Bim TR-FRET, recombinant human Mcl-1 (171-327).

T1 sequence (Q07820 171-327): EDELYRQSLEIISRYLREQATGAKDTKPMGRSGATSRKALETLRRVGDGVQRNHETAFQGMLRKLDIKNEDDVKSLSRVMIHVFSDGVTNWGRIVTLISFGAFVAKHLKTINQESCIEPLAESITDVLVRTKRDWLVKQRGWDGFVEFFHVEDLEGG

In the case of `C[C@@H]1[C@@H](C)C/C=C/[C@H](OCC(=O)N2CC[C@@H](O)C2)[C@@H]2CC[C@H]2CN2C[C@@]3(CCCc4cc(Cl)ccc43)COc3ccc(cc32)C(=O)NS1(=O)=O` [Example 311, (1S,3′R,6′R,7′S,8′E,11′S,12′R)-6-chloro-7′-(2-((3R)-3-hydroxy-1-pyrrolidinyl)-2-oxoethoxy)-11′,12′-dimethyl-3,4-dihydro-2H,15′H-spiro[naphthalene-1,22′-[20]oxa[13]thia[1,14]diazatetracyclo[14.7.2.0^3,6.0^19,24]pentacosa [8,16,18,24]tetraen]-15′-one 13′,13′-dioxide], the pIC50 (commonly the negative decadic logarithm of the IC50, by convention in mol/L) is 5.85 in test [1] (setting [3]) and 9.86 in test [2] (setting [4]).

In the case of `C[C@H]1/C=C/[C@H](O)[C@@H]2CC[C@H]2CN2C[C@@]3(CCCc4cc(Cl)ccc43)COc3ccc(cc32)C(=O)NS(=O)(=O)[C@@H](C)C1` (single isomer, unassigned) [Example 1021], the pIC50 was 4.57 in test [1] (16 h incubation) and 8.04 in test [2] (setting [4]).

On to `C[C@@H]1C[C@@H](C)/C=C/[C@H](OCCN2CCOCC2)[C@@H]2CC[C@H]2CN2C[C@@]3(CCCc4cc(Cl)ccc43)COc3ccc(cc32)C(=O)NS1(=O)=O` [Example 1018, (1S,3′R,6′R,7′S,8′E,10′R,12′R)-6-chloro-10′,12′-dimethyl-7′-(2-(4-morpholinyl)ethoxy)-3,4-dihydro-2H,15′H-spiro[naphthalene-1,22′-[20]oxa[13]thia[1,14]diazatetracyclo[14.7.2.0^3,6.0^19,24]pentacosa [8,16,18,24]tetraen]-15′-one 13′,13′-dioxide], for which the pIC50 in test [1] (setting [5]) is 6.55; in test [2] (setting [4]), 9.45.

For the compound `CO[C@H]1/C=C/[C@@H](CO)C[C@H](C)S(=O)(=O)NC(=O)c2ccc3c(c2)N(C[C@@H]2CC[C@H]21)C[C@@]1(CCCc2cc(Cl)ccc21)CO3` (single isomer, unassigned) [Example 127], the results for the negative logarithm of the IC50 (pIC50) in test [1] (16 h) and in test [2] (setting [4]) were 5.73 and 9.47, respectively.

As for `COC[C@H]1[C@@H](C)C/C=C\[C@H](O)[C@@H]2CC[C@H]2CN2C[C@@]3(CCCc4cc(Cl)ccc43)COc3ccc(cc32)C(=O)NS1(=O)=O` (single isomer, unassigned) [Example 457], the values for the pIC50 in test [1] (setting [3]) and in test [2] (setting [4]) were 6.53 and 9.58, respectively.

`CC[C@@H]1CC/C=C/[C@H](O)[C@@H]2CC[C@H]2CN2C[C@@]3(CCCc4cc(Cl)ccc43)COc3cc(F)c(cc32)C(=O)NS1(=O)=O` [Example 655, (1S,3′R,6′R,7′S,8′E,12′R)-6-chloro-12′-ethyl-17′-fluoro-7′-hydroxy-3,4-dihydro-2H,15′H-spiro[naphthalene-1,22′-[20]oxa[13]thia[1,14]diazatetracyclo[14.7.2.0^3,6.0^19,24]pentacosa [8,16,18,24]tetraen]-15′-one 13′,13′-dioxide]: the pIC50 in test [1] (setting [3]) was 6.02; in test [2] (setting [6]), 9.05.

Turning to `CO[C@H]1/C=C/[C@H](CCO)C[C@@H](C)S(=O)(=O)NC(=O)c2ccc3c(c2)N(C[C@@H]2CC[C@H]21)C[C@@]1(CCCc2cc(Cl)ccc21)CO3` [Example 202, (1S,3′R,6′R,7′S,8′E,10′R,12′R)-6-chloro-10′-(2-hydroxyethyl)-7′-methoxy-12′-methyl-3,4-dihydro-2H,15′H-spiro[naphthalene-1,22′-[20]oxa[13]thia[1,14]diazatetracyclo[14.7.2.0^3,6.0^19,24]pentacosa [8,16,18,24]tetraen]-15′-one 13′,13′-dioxide], the values for the negative-log IC50 (pIC50) in test [1] (setting [3]) and in test [2] (setting [4]) were 6.25 and 9.66, respectively.

With `CO[C@H]1C/C=C/[C@H](O)[C@@H]2CC[C@H]2CN2C[C@@]3(CCCc4cc(Cl)ccc43)COc3ccc(cc32)C(=O)NS(=O)(=O)[C@@H]1CC(C)C` (single isomer, unassigned) [Example 643], the results for the pIC50 in test [1] (setting [3]) and in test [2] (setting [6]) were 6.82 and 9.47, respectively.

With `O=C1NS(=O)(=O)N2CCOC[C@H]2C/C=C/[C@H](O)[C@@H]2CC[C@H]2CN2C[C@@]3(CCCc4cc(Cl)ccc43)COc3ccc1cc32` (single isomer, unassigned) [Example 343], the negative-log IC50 (pIC50) in test [1] (setting [3]) was 5.19; in test [2] (setting [4]) it was 8.14.

For `C[C@H]1C/C=C/[C@H](O)[C@@H]2CC[C@H]2CN2C[C@@]3(CCCc4cc(Cl)ccc43)COc3ccc(cc32)C(=O)NS(=O)(=O)[C@@H]1c1ccccc1` (single isomer, unassigned) [Example 654], the negative-log IC50 (pIC50) in test [1] (16 h) is 5.45; in test [2] (setting [6]), 8.12.

As to `C[C@@H]1[C@@H](C)C/C=C/C[C@H](O)[C@@H]2CC[C@H]2CN2C[C@@]3(CCCc4cc(Cl)ccc43)COc3ccc(cc32)C(=O)NS1(=O)=O` (single isomer, unassigned) [Example 555], the figures for the negative logarithm of the IC50 (pIC50) in test [1] (16 h) and in test [2] (setting [6]) were 5.58 and 8.32, respectively.

As for `CC(C)C[C@H](O[C@H]1/C=C/C[C@H](C)[C@@H](C)S(=O)(=O)NC(=O)c2ccc3c(c2)N(C[C@@H]2CC[C@H]21)C[C@@]1(CCCc2cc(Cl)ccc21)CO3)C(=O)N(C)C` (single isomer, unassigned) [Example 429], the negative logarithm of the IC50 (pIC50) in test [1] (16 h) was 5.88; in test [2] (setting [4]), 8.38.

Take `C[C@@H]1CC/C=C/[C@H](O[C@@H]2CCOC2=O)[C@@H]2CC[C@H]2CN2C[C@@]3(CCCc4cc(Cl)ccc43)COc3ccc(cc32)C(=O)NS1(=O)=O` (single isomer, unassigned) [Example 414]: the negative-log IC50 (pIC50) in test [1] (setting [3]) was 6.79; in test [2] (setting [4]), 9.73.

With `CO[C@H]1/C=C/[C@@H](C)[C@H](C)[C@@H](C)S(=O)(=O)NC(=O)c2ccc3c(c2)N(C[C@@H]2CC[C@H]21)C[C@@]1(CCCc2cc(Cl)ccc21)CO3` [Example 1053, (1S,3′R,6′R,7′S,8′E,10′R,11′S,12′R)-6-chloro-7′-methoxy-10′,11′,12′-trimethyl-3,4-dihydro-2H,15′H-spiro[naphthalene-1,22′-[20]oxa[13]thia[1,14]diazatetracyclo[14.7.2.0^3,6.0^19,24]pentacosa [8,16,18,24]tetraen]-15′-one 13′,13′-dioxide], the pIC50 in test [1] (setting [5]) is 5.83; in test [2] (setting [4]), 8.92.

As for `C[C@H]1C/C=C/[C@H](O)[C@@H]2CC[C@H]2CN2C[C@@]3(CCCc4cc(Cl)ccc43)COc3ccc(cc32)C(=O)NS(=O)(=O)N1C[C@H]1CCCO1` (single isomer, unassigned) [Example 53], the pIC50 in test [1] (setting [3]) was 6.31; in test [2] (setting [4]), 9.10.

Take `C[C@@H]1[C@@H](C)C/C=C/[C@H](OCCN2CCOCC2=O)[C@@H]2CC[C@H]2CN2C[C@@]3(CCCc4cc(Cl)ccc43)COc3ccc(cc32)C(=O)NS1(=O)=O` [Example 727, (1S,3′R,6′R,7′S,8′E,11′S,12′R)-6-chloro-11′,12′-dimethyl-7′-(2-(3-oxo-4-morpholinyl)ethoxy)-3,4-dihydro-2H,15′H-spiro[naphthalene-1,22′-[20]oxa[13]thia[1,14]diazatetracyclo[14.7.2.0^3,6.0^19,24]pentacosa [8,16,18,24]tetraen]-15′-one-13′, 13′-dioxide]: the pIC50 is 6.83 in test [1] (setting [3]) and 9.44 in test [2] (setting [6]).

Consider `CC[C@@H]1CC/C=C/[C@H](OCc2nccs2)[C@@H]2CC[C@H]2CN2C[C@@]3(CCCc4cc(Cl)ccc43)COc3ccc(cc32)C(=O)NS1(=O)=O` [Example 990, (1S,3′R,6′R,7′S,8′E,12′R)-6-chloro-12′-ethyl-7′-(1,3-thiazol-2-ylmethoxy)-3,4-dihydro-2H,15′H-spiro[naphthalene-1,22′-[20]oxa[13]thia[1,14]diazatetracyclo[14.7.2.0^3,6.0^19,24]pentacosa [8,16,18,24]tetraen]-15′-one 13′,13′-dioxide], for which the results for the pIC50 in test [1] (setting [5]) and in test [2] (setting [4]) were 5.65 and 8.51, respectively.
